US8476273B2, “Small molecule inhibitors of Lck SH2 domain binding” (University of Maryland, Baltimore, priority 2007, dated 2013)
Entries after “also recorded” stand apart in the source; their conditions may differ.

Key:
[1] = test system: GST-SH2 domains (Fyn, Lyn, Hck, Src, She and Grb2); assay: solid phase EIA specificity screening with other GST-SH2 domains; assay type: binding; details: screening concentration of 100 μM
Excerpt: (§1) Lck kinase is a member of Src family kinases including Fyn, Lyn, and Hck that have SH2 domains sharing significant sequence homologies at βD5, βE4, EF1 and βG4 sites where these amino acids form the pY+3 binding pocket. Accordingly, it was important to test inhibition specificities of compounds against SH2 domains of these Src kinases and other signal transduction molecules involved in TCR proximal signaling. All 42 compounds identified in the above assay were subjected to specificity screening using a solid phase EIA assay using 7 different GST-SH2 domains (Lck, Fyn, Lyn, Hck, Src, She and Grb2).
(§2) All the compounds that had >40% inhibitory effect in the cellular assays were tested in the solid phase specificity screening assay and three compounds, 72, 87 and 241 were identified to be specific to Lck. Due to the fact that these compounds were specific to Lck SH2 domain, in vitro and in vivo assays described below were conducted using these 3 compounds.

[2] = test system: Mtb-induced adjuvant arthritis; assay: Mtb-induced adjuvant arthritis (AA) in Lewis rats; assay type: in vivo, Lewis rat
Protocol: FIG. 4A is a line graph showing the effect of SMILS in a preventive treatment regimen. […] Mtb was injected on day 0. ▭—Untreated group, ◯—SMILS treated group.
FIG. 4B is a line graph showing the effect of SMILS in therapeutic-1 treatment regimen. […] Mtb was injected on day 0. ⋄—Untreated group, ◯—SMILS treated group (3 mg/kg body weight), ●—SMILS (1 mg/kg body weight) treatment group.
FIG. 4C is a line graph showing the effects of SMILS in therapeutic-2 treatment regimen. […] Mtb was injected on day 0. ⋄—Untreated group, ●—SMILS (3 mg/kg body weight) treatment group.
Pilot experiments using Lewis rats were carried out to assess the effect of SMILS on Mtb-induced AA. The initial experiments described here were carried out using compound 241. Experiments were carried out to test the efficacy of SMILS (3 mg/kg body weight injected i.p.) in three treatment regimens: i.e., preventive: (SMILS injected at −3, −2, −1, 0 days before Mtb injection); therapeutic 1: at the time of AA induction (SMILS injected at 0, 1, 2, 3, 4 days after Mtb injection); and therapeutic 2: at the time of clinical symptom appearance (SMILS injected at 10, 11, 12, 13 days after Mtb injection).
In addition to the visual scoring of the joint swelling, histological examinations of joints from all 4 paws collected at the peak of the disease were carried out.

Lck SH2 domain = target: T1, Lck SH2 domain (Homo sapiens, UniProt P06239); assay: solid phase EIA of Lck SH2 domain binding to CD3 ζ chain ITAM peptide; details: screening concentration of 100 μM
T1 construct: GST
T1 sequence (P06239 127-224 limits assumed): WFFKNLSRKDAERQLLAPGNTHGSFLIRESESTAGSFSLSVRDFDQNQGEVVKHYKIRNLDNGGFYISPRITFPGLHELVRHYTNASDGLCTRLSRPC
Excerpt: Compounds have been identified that inhibited Lck SH2 domain binding to the CD3 ζ chain ITAM peptide using a combination of CADD and biological assays using a solid phase EIA assay developed in our laboratory.
as §1, §2

Row | Structure (SMILES) | inhibitory activity against the other SH2 domains [1] | joint swelling in Mtb-induced AA, therapeutic 1 regimen ([2]; 3 mg/kg i.p. on days 0, 1, 2, 3, 4 after Mtb, Lewis rats) | joint swelling in Mtb-induced AA, therapeutic 2 regimen ([2]; 3 mg/kg i.p. on days 10, 11, 12, 13 after Mtb, Lewis rats) | joint swelling in Mtb-induced AA, preventive regimen ([2]; 3 mg/kg i.p. on days -3, -2, -1, 0, Lewis rats) | histological examination of joints ([2]; paws collected at the peak of the disease, AA rats) | specificity towards Lck SH2 domain (Lck SH2 domain)
1 | O=C(NCCSc1ccccc1)c1cncc(Br)c1 [Compound 241] | little or no inhibitory activity | significantly reduced the joint swellings in all rats | significantly reduced the joint swellings in all rats | delayed the onset of joint swelling and reduced the severity of joint swellings | absence of damage to the cartilage and inflammatory cells; also recorded: No infiltration of inflammatory cells is observed in the joint space | showed specificities towards Lck SH2 domain
2 | O=C(O)COc1ccccc1/C=N/NC(=O)c1cc(Cl)ccc1O [Compound 72] | little or no inhibitory activity | – | – | – | – | showed specificities towards Lck SH2 domain
